≈ marks a conversion by molar mass, not a printed value. Where “and” joins values, the source holds several entries; their conditions need not be identical. Identical values can stand only once. Like-named read-outs stand apart in the source and are kept apart here.
What was measured:
[1] = test system: L. amazonensis promastigotes; assay: Antiproliferation assay: L. amazonensis promastigotes (72 h), MTT; format: cell-based, Leishmania amazonensis (IFLA/BR/1967/PH8); conditions: 72 h exposure; for IC50: Leishmania amazonensis
Protocol: (§1) Leishmania amazonensis promastigotes (IFLA/BR/1967/PH8) for the 24 h exposure test were cultivated in RPMI 1640, supplemented with 20% v/v heat inactivated fetal bovine serum (FBS) and incubated at 26°C until near the end of the log growth phase. Leishmania amazonensis (IFLA/BR/1967/PH8) and L. infantum (MCAN/BR/2008/1112) promastigotes used in the 72 h exposure test were cultivated in Warren’s medium (containing brain heart infusion- BHI plus hemin and folic acid), supplemented with 10% FBS, 0.1% of the antibiotics: 100 UI/mL penicillin G and 0.1 mg/mL streptomycin. Leishmania amazonensis (IFLA/BR/1967/PH8) transfected with the red fluorescent protein (RFP) gene was cultured in M199 medium (containing 0.1 mmol/L adenine, 40 mmol/L hepes, 0.0005% hemin and 0.0002% biotin), supplemented with 10% FBS, and 0.1% of the antibiotic. Parasites were maintained at 25°C in a BOD incubator.
(§2) Extracts and isolated compounds were tested against L. amazonensis promastigotes (IFLA/BR/1967/PH8 strain - 2x10^5 cells/well) and L. infantum promastigotes (MCAN/BR/2008/1112 strain - 3x10^5 cells/well). The samples were solubilized in DMSO (<1%), serially diluted (100 μg/mL to 1.56 μg/mL) and tested in a 96-well plate to obtain a dose-response curve. Miltefosine and DMSO were used as positive and negative controls, respectively. After 72 h, 10 μL of 3-(4,5-dimethylthiazol-2-yl)-2,5-diphenyl tetrazolium bromide (5 mg/mL—MTT, Sigma-Aldrich) solution was added to each well and the plate returned to the incubator for an additional 4 h. To halt the reaction, 100 μL acidified isopropanol was added to each well. Plates were read at 570 nm in a microplate reader (Multiskan MS, LabSystems Oy, Helsinki, Finland).

[2] = test system: L. amazonensis amastigotes; assay: L. amazonensis amastigotes assay (RFP parasites in peritoneal macrophages); format: cell-based, Leishmania amazonensis (IFLA/BR/1967/PH8); conditions: for activity against L. amazonensis amastigotes (in words) / IC50: 72 h; for IC50: Leishmania amazonensis, Peritoneal macrophage, intracellular
Protocol: Peritoneal macrophages obtained from BALB/c mice were transferred to a 24-well plate (6x10^5 cells/well) in RPMI 1640 medium supplemented with 10% inactivated FBS and 20 mM L-glutamine, pH 7.2. The plate was incubated at 37°C in 5% CO2 for 24 h. After this period, macrophages were infected with L. amazonensis (IFLA/BR/1967/PH8) transfected with RFP in the stationary growth phase using a ratio 1:10 (macrophages/parasites) at 33°C for 4 h. The non-phagocytosed parasites were subsequently removed by extensive PBS wash, and samples added at non-toxic concentrations, in accordance with the cytotoxicity tests (100 μg/mL to 1.56 μg/mL) to determine the IC50 for the intracellular parasite. After 72 h, the supernatant was removed from the wells and 200 μL of deionized water added to each well to lyse the cell membrane. After lysis, the resulting supernatants were transferred to a black 96-well plate. The plate was read in a fluorescence spectrophotometer (FLx800, BioTek Instruments, Inc., Winooski, VT, USA) with 540/600 nm of excitation/emission. Wells containing macrophages infected with L. amazonensis (RFP) […] only were used as negative controls.

[3] = test system: L. infantum promastigotes; assay: Antiproliferation assay: L. infantum promastigotes (72 h), MTT; format: cell-based, Leishmania infantum (MCAN/BR/2008/1112); conditions: 72 h exposure; for IC50: Leishmania infantum, 72 h
Protocol: as §1, §2

[4] = Cytotoxicity assay (MTT); format: cell-based, BALB/c mice; conditions: female, BALB/c, mouse, 72 h exposure
Protocol: Female BALB/c mice pre-inoculated with 3% thioglycollate medium were used to obtain macrophages from the peritoneal cavity. Peritoneal exudate was collected 72 h post-inoculation using cold Hank´s Balanced Salt Solution and the assay performed as previously reported. Briefly, peritoneal macrophages in RPMI 1640 medium were transferred to a 96-well plate (2x10^5 cells/well) and incubated at 37°C in 5% CO2 for 24 h to allow adhesion. Samples were serially diluted (100 μg/mL to 0.78 μg/mL), added to the plate with the cells and incubated under the same conditions for 72 h. MTT (10 μL/well) was subsequently added and the plates re-incubated for a further 2 h. To halt the reaction, 100 μL of acidified isopropanol was added to each well. The plate was then read at 570 nm in a microplate reader (Multiskan MS, LabSystems Oy, Helsinki, Finland).

[5] = test system: L. amazonensis promastigotes; assay: Mitochondrial membrane potential (MitoTracker); format: cell-based, Leishmania amazonensis; conditions: 24 h; 2 at 33.8 μM, 3 at 11.4 μM; FCCP 5.0 μM for 10 min
Protocol: After 24 h of incubation at 25°C, the parasite concentration was adjusted to 5x10^6 cells/mL and stained with 500 nM MitoTracker (Invitrogen, Eugene, OR, USA) in the dark for 40 min at 37°C. After washing twice with PBS, samples were transferred in triplicate to a black 96-well plate, and fluorescence measured in a spectrofluorometer (FLx800, BioTek Instruments, Inc., Winooski, VT, USA) at 540/600 nm excitation/emission. […] Louis, MO, USA) for 10 min were used to obtain maximal mitochondrial depolarization (positive control).

[6] = test system: L. amazonensis promastigotes; assay: Antiproliferation assay: L. amazonensis promastigotes (24 h), resazurin; format: cell-based, Leishmania amazonensis (IFLA/BR/1967/PH8); conditions: Leishmania amazonensis, after 24 h, read-out: IC50 (CI95)
Protocol: as §1
Extracts and fractions were tested against L. amazonensis (IFLA/BR/1967/PH8) promastigote cells in a 96-well plate at a concentration of 10^6 cells/well. Each sample was solubilized in DMSO (<1%) since it was not soluble directly in the medium. Extracts were tested at 100 μg/mL and 50 μg/mL. […] Plates were read at 570 nm and 595 nm in a microplate reader (BiochromAsys UVM 340) after cell lysis with sodium dodecyl sulfate (SDS). Viability was calculated based on the equations described by Kulshrestha.

[7] = test system: L. amazonensis axenic amastigotes; set-up: method as in PMID 18849135; conditions: cited from earlier work
[8] = test system: L. amazonensis promastigotes; conditions: cited from earlier work
[9] = test system: L. amazonensis promastigotes; assay: Reactive oxygen species (ROS) detection (H2DCFDA); format: cell-based, Leishmania amazonensis
Protocol: Fluorescence intensity was detected using a fluorimetric microplate reader (FLx800, BioTek Instruments, Inc., Winooski, VT, USA), at 485/528 nm excitation/emission. Promastigotes incubated with miltefosine (44.2 μM) were used as a positive control.

[10] = test system: L. amazonensis promastigotes; assay: Neutral lipid quantification (Nile Red); format: cell-based, Leishmania amazonensis; conditions: 24 h; 2 at 33.8 μM, 3 at 11.4 μM
Protocol: After 24 h of exposure, the parasites (1x10^7 cells/well) were stained with 10 μg/mL Nile Red (Sigma-Aldrich, St. Louis, MO, USA) in the dark for 20 min at 25°C. Fluorescence intensity was analysed in a spectrofluorometer (BioTek Instruments, Inc., Winooski, VT, USA) using 485/528 nm excitation/emission.

[11] = test system: L. amazonensis promastigotes; assay: Cell membrane integrity (propidium iodide); format: cell-based, Leishmania amazonensis; conditions: 24 h; 2 at 33.8 μM, 3 at 11.4 μM
Protocol: Plates were incubated with propidium iodide (PI) (1.0 μg/mL—Sigma-Aldrich, USA, St. Louis, MO, USA) for 15 min in the dark at RT. Fluorescence was measured using a spectrofluorometer (FLx800, BioTek Instruments, Inc., Winooski, VT, USA) with 540/600 nm excitation/emission. Parasites heated at 65 °C were used as the positive control.

[12] = test system: L. infantum amastigotes; assay: L. infantum amastigotes assay (Giemsa, infection index); format: cell-based, Leishmania infantum; conditions: Leishmania infantum; intracellular, 72 h
Protocol: Peritoneal macrophages (6 x 10^5 cells) were plated on round glass coverslips within 24-well plates in RPMI 1640 medium supplemented with FBS and 20 mM L-glutamine, pH 7.2, and incubated for 24 h at 37°C in 5% CO2. Stationary-phase promastigotes (6 x 10^6 cells, at a ratio of 10 parasites per macrophage) were then added to the wells, and cultures incubated for 24 h at 37°C in 5% CO2. Non-internalized parasites were removed by extensive PBS solution washing and infected macrophages subsequently treated with nontoxic concentrations of: compound 3 (6.25 μg/mL to 0.18 μg/mL) or miltefosine (10.0 μg/mL to 0.6 μg/mL, positive control) for 72 h at 37°C in 5% CO2. After compound exposure, cells were fixed with absolute ethanol and stained with Giemsa. A total of 200 macrophages were counted under a light microscope. The infection index was determined by the […] percentage of infected macrophages multiplied by the mean number of amastigotes per macrophage out of 200 macrophages.

Row | Compound | IC50 [1] | activity against L. amazonensis amastigotes (in words) [2] | IC50 [2] | IC50 [3] | CC50 at 72 h ([4]; murine peritoneal macrophages) | also measured
1 | CCCCCCCCCCCCCCCC1=C(O)C(=O)C=C(O)C1=O [Compound 6, suberonone] | 51.9 µg/mL and 149 µM | inactive | > 3.2 µg/mL and > 8.9 µM | 37.2 µg/mL and 106 µM | 4.2 µg/mL and 11.7 µM | activity against L. amazonensis promastigotes (in words) [1]: not considered active; activity against L. infantum promastigotes (in words) [3]: not considered active
2 | N#CC(C#N)=NNc1ccc(OC(F)(F)F)cc1 [FCCP, carbonyl cyanide 4-(trifluoro-methoxyl)phenylhydrazone, reference compound] | – | – | – | – | – | reduction in mitochondrial membrane potential (ΔΨm) [5]: 51.6%
3 | C[C@@H]1[C@H](O)[C@@H](C)/C=C/C=C/C=C/C=C/C=C/C=C/C=C/[C@H](O[C@@H]2O[C@H](C)[C@@H](O)[C@H](N)[C@@H]2O)C[C@@H]2O[C@](O)(C[C@@H](O)C[C@@H](O)[C@H](O)CC[C@@H](O)C[C@@H](O)CC(=O)O[C@H]1C)C[C@H](O)[C@H]2C(=O)O [Amphotericin B, reference compound] | – | – | – | – | – | IC50 [6]: < 7.8 µg/mL
4 | CCC(C)C(=O)c1c(O)c(CC=C(C)C)c(O)c2c(-c3ccccc3)cc(=O)oc12 (centres unmarked) [mammea A/BB] | – | – | – | – | – | IC50 axenic amastigotes [7]: 0.88 µg/mL (≈ 2.16 µM); IC50 promastigotes [8]: 3 µg/mL (≈ 7.38 µM)
5 | CCCCCCCCCCCCCC1=C(O)C(=O)C=C(O)C1=O [Compound 4, rapanone] | 50.4 µg/mL and 169 µM | inactive | > 3.2 µg/mL and > 10.6 µM | 7.2 µg/mL and 24.5 µM | 2.9 µg/mL and 9.8 µM | activity against L. amazonensis promastigotes (in words) [1]: inactivity; Promastigotes IC50 L. infantum [3]: 7.17 ± 0.3 µg/mL
6 | COc1ccc2c(c1)OC1c3ccc4c(c3OCC21)C=CC(C)(C)O4 (centres unmarked) [Compound 1, hemileiocarpin] | – | – | 10.6 µg/mL and 31.6 µM | 20.8 µg/mL and 61.9 µM | > 100 µg/mL and > 297 µM | –
7 | CCCCCCCCCCCC1=C(O)C(=O)C=C(O)C1=O [Compound 5, embelin] | 12.5 µg/mL and 38.9 µM | inactive | > 3.2 µg/mL and > 9.7 µM | 10.7 µg/mL and 33.2 µM | – | CC50 at 72 h ([4]; read-out: Cytotoxicity CC50 Murine macrophages): 0.9 µg/mL and 2.6 µM
8 | CC1(C)C=Cc2c(ccc3c2OCC2c4cc5c(cc4OC32)OCO5)O1 (centres unmarked) [Compound 2, leiocarpin] | 11.4 µg/mL and 33.8 µM | – | 7.1 µg/mL and 20.4 µM | 15.5 µg/mL and 44.3 µM | 39 µg/mL and 116 µM | ROS level ([9]; 24 h, 2 at 33.8 μM, 3 at 11.4 μM): no alteration in the ROS level; reduction in mitochondrial membrane potential (ΔΨm) [5]: 37.6%; SI (Selectivity Index) ([2]; CC50 macrophages / IC50 L. amazonensis amastigotes): 5.7; increase in neutral lipid levels in relation to the untreated control [10]: 86.9%; plasma membrane integrity (PI-positive parasites) [11]: significant increase in the percentage of PI-positive parasites
9 | CCCCCCCCCCCCCCCCOP(=O)([O-])OCC[N+](C)(C)C [Miltefosine, reference compound] | 9 µg/mL and 22.1 µM | – | 5.2 µg/mL and 12.7 µM | 2.6 µg/mL and 6.5 µM | – | increase in ROS production ([9]; miltefosine 44.2 μM, positive control): 162.3%; SI (Selectivity Index) [2]: 10.4; IC50 [12]: 3.7 µM

Source: publication PMC7647111, “Antileishmanial compounds from Connarus suberosus: Metabolomics, isolation and mechanism of action” (PLoS ONE, 2020)
